# Measurements as given in patent US20230047825A1, “ANTIMICROBIAL PEPTIDES” (priority 2019, published 2023).
# Where two headings read alike, the source gives them in different places. Where a SMILES comes first, the peptide text is derived from it.
# Experiments:
# [1] = test system: MS Staphylococcus aureus ATCC 9144; format: cell-based; settings: MSSA9144
# human red blood cells = test: Haemolysis assay; settings: red cells of human, 1 h
# Procedure: Haemolysis assay. Haemolysis was tested by incubating titrations of AMPs in PBS with freshly collected human red blood cells for 1 hour at 37 C. Control wells were treated with 0.1% Triton-X-100 to ensure complete lysis, or PBS-only to represent no lysis. Samples were spun down to remove non-lysed cells and the OD^550 of the supernatant was measured using a Clariostar plate reader. The percentage of haemolysis was calculated as % haemolysis=(AP−AB)/(AC−AB)×100, where AP is the absorbance value for a known peptide concentration, AC is the absorbance of the 0.1% Triton-X-100 control, AB is the absorbance of the PBS control. Data presented are averages and standard error from three biological replicate experiments.
# Methods: The natural AMP (termed AMP1) was modified to produce synthetic variants, AMPs 1a, 2a, 2b, 3a and 3b. Minimum inhibitory concentrations (MICs) were determined using the microbroth dilution assay with Mueller Hinton broth (MHB) or RPMI (with 5% FBS) and stability in serum was tested by conducting MICs in MHB containing 10% FBS. Synergy experiments were performed following a checkerboard protocol. Cytotoxicity was tested against HEK293 and HeLa immortalised human cell-lines using the XTT viability stain and by quantifying haemolysis of human red blood cells. Patch clamp analysis was performed using the Port-a-Patch® automated patch-clamp system on DPhPE/DPhPG (model for a Gram-negative plasma membrane) or DPhPG (Gram-positive) model membranes challenged with peptide. The murine lung infection model was performed using the agar bead model with Staphylococcus aureus strain NCTC 13616 (EMRSA-15).
# [2] = test system: VS Enterococcus faecalis NCTC 775; test: Antibacterial activity assay (broth microdilution MIC); format: cell-based
# [3] = test system: Escherichia coli NCTC 12923; format: cell-based; settings: EC12923
# [4] = test system: Acinetobacter baumannii AYE; format: cell-based; settings: AYE
# [5] = test system: EMR Staphylococcus aureus-15 (EMRSA-15); format: cell-based
# [6] = test system: Pseudomonas aeruginosa PA01; test: Antibacterial activity assay (broth microdilution MIC); format: cell-based
# [7] = test system: Pseudomonas aeruginosa NCTC 13437; test: as above; format: cell-based; settings: PA13437, in µg/mL
# [8] = test system: Acinetobacter baumannii ATCC 17978; format: cell-based; settings: in µg/mL; for MIC, Stability in serum (MH): Ab17978
# [9] = test system: VR Enterococcus faecium NCTC 12204; test: Antibacterial activity assay (broth microdilution MIC); format: cell-based; settings: VRE12204, in µg/mL
# Klebsiella pneumoniae M6 = format: cell-based
# [10] = untitled table, medium/unit not given, values match RPMI of Table 2, in µg/mL
# [11] = medium and unit not given, in µg/mL
# [12] = untitled table, medium/unit not given, values match RPMI of Table 2
smiles,measurement,setting,value
CC(C)C[C@@H](NC(=O)[C@@H](Cc1ccc(O)cc1)NC(=O)[C@@H](Cc1c[nH]cn1)NC(=O)[C@H](NC(=O)[C@@H](CC(C)C)NC(=O)[C@@H](C)NC(=O)[C@@H](C)NC(=O)[C@@H](CCCCN)NC(=O)CNC(=O)[C@H](NC(=O)[C@@H](Cc1c[nH]cn1)NC(=O)[C@@H](CCCCN)NC(=O)CNC(=O)[C@H](NC(=O)[C@@H](Cc1c[nH]cn1)NC(=O)[C@@H](C)NC(=O)[C@@H](C)NC(=O)[C@@H](CCCCN)NC(=O)[C@@H](CCCCN)NC(=O)[C@@H](Cc1ccccc1)NC(=O)[C@@H](Cc1ccccc1)NC(=O)[C@@H](CO)NC(=O)CNC(=O)[C@@H](Cc1c[nH]c2ccccc12)NC(=O)CN)C(C)C)C(C)C)[C@H](C)O)C(N)=O [D-pleurocidin] (HELM PEPTIDE1{G.[dW].G.[dS].[dF].[dF].[dK].[dK].[dA].[dA].[dH].[dV].G.[dK].[dH].[dV].G.[dK].[dA].[dA].[dL].[dT].[dH].[dY].[dL].[am]}$$$$V2.0; N-terminus assumed),MIC on initial panels,[1]; medium and unit inferred,2 µg/mL
same,MIC,[1]; [10],0.5
same,"Toxicity HC50, Peptide concentration",human red blood cells,>400 µg/mL
same,"MIC, Peptide concentration",[2]; Mueller-Hinton broth,32 (NG) μg/ml
same,MIC on initial panels,"[2]; VSE775, medium and unit not given, in µg/mL",32
same,MIC,"[3]; (MH), in µg/mL",1
same,MIC,"[3]; (RPMI), in µg/mL",2-4
same,"MIC, Stability in serum (MH)",[3]; No serum,1 µg/mL
same,"MIC, Stability in serum (MH)",[3]; Serum (10% fetal bovine serum),0.5 µg/mL
same,MIC on initial panels,[3]; [11],1
same,MIC,[3]; [10],2-4
same,MIC,"[4]; (MH), in µg/mL",1
same,MIC,"[4]; (RPMI), in µg/mL",2
same,"MIC, Stability in serum (MH)",[4]; No serum,2 µg/mL
same,"MIC, Stability in serum (MH)",[4]; Serum (10% fetal bovine serum),2 µg/mL
same,MIC on initial panels,[4]; [11],1
same,MIC,[4]; [10],2
same,"MIC, Peptide concentration",[5]; EMR -15 (EMRSA-15),1 µg/mL
same,MIC on initial panels,"[5]; EMRSA15, medium and unit inferred",16 µg/mL
same,MIC,"[5]; EMRSA15, untitled table, medium/unit inferred, values match RPMI of Table 2",1 µg/mL
same,"MIC, Peptide concentration",[5]; Mueller-Hinton broth,16 µg/mL
same,MIC,[6]; (MH),2 µg/mL
same,MIC,[6]; (RPMI),16 µg/mL
same,"MIC, Stability in serum (MH)","[6]; No serum, in µg/mL",2
same,"MIC, Stability in serum (MH)","[6]; Serum (10% fetal bovine serum), in µg/mL",4
same,MIC on initial panels,[6]; [11],2
same,MIC,"[6]; untitled table, medium/unit inferred, values match RPMI of Table 2",16 µg/mL
same,MIC,[7]; (MH),8
same,MIC,[7]; (RPMI),16-32
same,"MIC, Stability in serum (MH)",[7]; No serum,8
same,"MIC, Stability in serum (MH)",[7]; Serum (10% fetal bovine serum),16
same,MIC on initial panels,[7]; medium and unit not given,8
same,MIC,[7]; [12],16-32
same,MIC,"[8]; AB17978, (MH)",1
same,MIC,"[8]; AB17978, (RPMI)",8
same,MIC on initial panels,"[8]; AB17978, medium and unit not given",1
same,MIC,"[8]; AB17978, untitled table, medium/unit not given, values match RPMI of Table 2",8
same,"MIC, Stability in serum (MH)",[8]; No serum,1
same,"MIC, Stability in serum (MH)",[8]; Serum (10% fetal bovine serum),0.5
same,MIC on initial panels,[9]; medium and unit not given,16
same,MIC,[9]; [12],4
same,MIC,"Klebsiella pneumoniae M6; (MH), in µg/mL",4
same,MIC,"Klebsiella pneumoniae M6; (RPMI), in µg/mL",4-8
same,"MIC, Stability in serum (MH)",Klebsiella pneumoniae M6; No serum,4 µg/mL
same,"MIC, Stability in serum (MH)",Klebsiella pneumoniae M6; Serum (10% fetal bovine serum),4 µg/mL
same,MIC on initial panels,Klebsiella pneumoniae M6; [11],4
same,MIC,Klebsiella pneumoniae M6; [10],4-8
